In patent US20030077653A1, “Method for the identification of active site protease inactivators” (The University of Georgia Research Foundation, Inc., priority 2000, published 2003):
Starred links: 1 amine or outer side, 2 acyl side, 3 side chain; linkers in the order of their positions; H or OH if unused. Residues, ends and D or L forms follow the SMILES beside them. *: point of attachment. AFC = O=c1cc(C(F)(F)F)c2ccc(N*)cc2o1; Morpholide = C1CN(*)CCO1; Cbz = O=C(OCc1ccccc1)*; CO = O=C([*:1])[*:2]; CH2F = FC*

Tests used:
[1] = Observation of side effects in treated mice; type: in vivo; details: BALB/c mice; for side effects in mice, long-term study: 30 days treatment, 5 months follow-up
Procedure: FIG. 8. […] Each treated mouse was pre-injected intraperitoneally with inhibitor for two days. During treatment phase, each treated mouse received 1.48×10^−2 μg/μl of N2 daily for three weeks and every other day during the last week. Injections were carried out in 150 μl of dimethyl sulfoxide for each mouse. Both treated groups and positive controls were challenged intraperitoneally with 10 Taenia crassiceps cysts in 200 μl 0.15M PBS at the time of initial infection. After one month of infection, both groups were euthanized and cysts removed by washing with sterile 0.15M PBS. A minimum of two attached cysts were scored as multilobed (ML). […] (B) Graphically represents the effect of protease inhibitor treatment of BALB/c mice challenged with Taenia crassiceps cysts over a long-term period. Mice were divided into treated and untreated groups (5 mice/group).Each mouse in the treated group was pre-injected intraperitoneally with inhibitor for two days. Subsequently, all groups were challenged with 10 T. crassiceps cysts in 200 μl of 0.15M PBS. Treatment with inhibitor or placebo (0.15M PBS) was carried out every day for 30 days post-challenge. Cysts were left alone (untreated) for 5 months, and then euthanized. Cysts were then counted by visual inspection. Percent protection is based on the reduction of the total cyst number in comparison to control mice, which never received any treatment.
Mice in all groups survived without noticeable side effects (e.g., coat condition, tail dragging or paresis, etc).
Long-term studies were also conducted to determine over how long a period these inhibitors would maintain a protective effect. In a representative experiment shown here, mice were divided into treated and untreated groups (5 mice/group). Each mouse in the treated group was pre-injected intraperitoneally with inhibitor for two days. Subsequently, all groups were challenged with 10 T. crassiceps cysts in 200 μl 0.1 5M PBS. Treatment with inhibitor or placebo (0. 15M PBS) was carried out every day for 30 days post- challenge. […] Cysts were then counted by visual inspection. […]

[2] = target: purified Taenia solium cysteine protease; assay: Competitor assay: vehicle inhibition of cleavage of high Vmax AFC substrate cocktails (Step III); type: biochemical; details: preliminary results, in comparison to the battery of substrates
Procedure: (We employed “Vmax” here although Kcat could also be used). Due to the lower number of substrates, a percentage was not chosen for the “BOTTOM %” substrates. Alternately, all substrates which were not cleaved as determined by a value of 10 μM/hr or less, were chosen to be tested in this step for competitive ability. From this point forth, the term “vehicle” will represent low Vmax substrates that were capable of inhibiting cleavage of the percent cocktails. In this instance, we tested for “vehicles” which inhibited cleavage of the TOP 1.4% cocktail (they were delivered into the active site). Based upon our results from Step II, the top 1.4% cocktail was composed of Z-Phe-Arg-AFC, the highest cleaved substrate.
The experiment began with a competitor test between the noncleaved low Vmax substrates and the highest Vmax substrate, Z-Phe-Arg-AFC. Concentrations were varied between the low Vmax substrate and Z-Phe-Arg-AFC, as described above under “refinement of assay” until a relative inhibition profile was obtained.
The mixture was allowed to equilibrate for a period of 30 minutes. Finally, active purified enzyme was added to the tubes at a concentration which was always 50 times less than the concentration of the high and low Vmax substrates, in order to insure saturation conditions. This concentration varied from purification to purification and the amount added depended upon the yield and specific activity of the purified protease.
Positive controls were set up similarly as described for test controls, except that solvent was added in substitution for the low Vmax substrate (in a volume equal to the low Vmax volume addition). All of the substrates could be dissolved in dimethylsulfoxide (DMSO), and therefore, this was the solvent of choice. Negative controls were set up by adding the low Vmax and the high Vmax substrate in a tube without the protease. All potential non-proteolytic induced liberation of AFC was therefore controlled for in this tube (a feature which also insured stability of the AFC substrates, since these substrates will freely liberate AFC when unstable). A tube set will be established for this negative control.
All controls were set up in triplicate, and experiments repeated a minimum of five times. The assays were incubated at 37° C., for 18 hours overnight.
Percent inhibition was calculated as: [formula]
A 2.9% cocktail of the high Vmax substrates was made. This was composed of Z-FR-AFC and the second most cleaved substrate, Z-FAR-AFC. The vehicles promoted from the initial screenings above were again tested for competitive inhibition ability with the new cocktails. Their concentrations were set identically to those which were “fixed” in the previous protocols. […]

SMILES	side effects in mice, long-term study [1]	Ki of vehicles (ranking; values not reported) [2]	side effects / inhibitor toxicity in mice, short-term studies ([1]; one month, visual inspection)
CC(C)C[C@H](NC(=O)[C@H](CC(C)C)NC(=O)[C@H](CC(C)C)NC(=O)OCc1ccccc1)C(=O)CF [Z-LLL-FMK, Z-Leu-Leu-Leu-fluoromethylketone] (Cbz-Leu-Leu-Leu-CH2F)	no side effects	–	–
CC(C)C[C@H](NC(=O)N1CCOCC1)C(=O)N[C@@H](Cc1ccc(O)cc1)C(=O)Nc1ccc2c(C(F)(F)F)cc(=O)oc2c1 [Mu-LY-AFC, Mu-Leu-Tyr-AFC] ({Morpholide-CO}-Leu-Tyr-{AFC})	–	lowest Ki values	–
CC(C)C[C@H](NC(=O)OCc1ccccc1)C(=O)N[C@@H](CC(C)C)C(=O)N[C@@H](Cc1ccc(O)cc1)C(=O)CF [Z-LLY-FMK, Z-Leu-Leu-Tyr-FMK] (Cbz-Leu-Leu-Tyr-CH2F)	no side effects	–	no mice showed effects of inhibitor toxicity
